{"source": "ChEMBL document CHEMBL1201862", "about": "“PubChem BioAssay data set” (2004)", "key": {"[1]": {"biological_target": "T1, Sentrin-specific protease 8 (Homo sapiens, UniProt Q96LD8)", "T1 sequence (Q96LD8 whole entry)": "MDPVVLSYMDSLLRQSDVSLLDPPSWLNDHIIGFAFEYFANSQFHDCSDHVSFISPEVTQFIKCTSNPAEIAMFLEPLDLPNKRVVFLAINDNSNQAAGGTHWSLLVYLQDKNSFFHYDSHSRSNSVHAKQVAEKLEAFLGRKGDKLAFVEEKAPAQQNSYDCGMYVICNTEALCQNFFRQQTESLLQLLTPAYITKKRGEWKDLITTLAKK", "assay_type": "functional"}, "[2]": {"biological_target": "T2, Runt-related transcription factor 1/Core-binding factor subunit beta (Homo sapiens, UniProt Q01196+Q13951)", "T2 sequence (Q01196 whole entry)": "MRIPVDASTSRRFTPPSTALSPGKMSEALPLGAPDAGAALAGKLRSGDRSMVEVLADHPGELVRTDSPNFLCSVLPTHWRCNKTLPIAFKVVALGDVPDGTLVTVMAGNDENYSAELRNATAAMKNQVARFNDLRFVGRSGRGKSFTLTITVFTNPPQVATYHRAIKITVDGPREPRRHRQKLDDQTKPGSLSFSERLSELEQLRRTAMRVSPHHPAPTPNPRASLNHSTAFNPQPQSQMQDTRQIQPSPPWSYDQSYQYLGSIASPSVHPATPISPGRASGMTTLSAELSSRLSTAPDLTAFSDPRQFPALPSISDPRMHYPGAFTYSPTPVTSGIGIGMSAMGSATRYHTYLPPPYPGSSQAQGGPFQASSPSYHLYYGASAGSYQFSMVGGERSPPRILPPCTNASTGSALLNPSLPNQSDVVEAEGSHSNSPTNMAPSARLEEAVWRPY", "T2 sequence (Q13951 whole entry)": "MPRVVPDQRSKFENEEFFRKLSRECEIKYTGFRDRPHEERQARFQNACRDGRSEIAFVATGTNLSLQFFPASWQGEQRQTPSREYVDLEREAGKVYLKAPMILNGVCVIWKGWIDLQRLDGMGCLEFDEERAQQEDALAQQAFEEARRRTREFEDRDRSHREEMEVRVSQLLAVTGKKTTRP", "assay": "inhibitors of RUNX1 Runt–CBFb-SMMHC binding, biochemical, TR-FRET (AID 1438)", "assay_type": "protein assay"}, "[3]": {"biological_target": "T2, Runt-related transcription factor 1/Core-binding factor subunit beta", "assay": "inhibitors of RUNX1 Runt–CBFb-SMMHC binding, primary screen, biochemical, FRET, Cerulean-Runt, Venus-CBFb-SMMHC, uHTS (AID 1434);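 note: partner is the CBFb-SMMHC leukemia fusion protein rather than wild-type CBFb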", "assay_type": "protein assay"}, "[4]": {"biological_target": "T3, Caspase-3 (Homo sapiens, UniProt P42574)", "T3 sequence (P42574 whole entry)": "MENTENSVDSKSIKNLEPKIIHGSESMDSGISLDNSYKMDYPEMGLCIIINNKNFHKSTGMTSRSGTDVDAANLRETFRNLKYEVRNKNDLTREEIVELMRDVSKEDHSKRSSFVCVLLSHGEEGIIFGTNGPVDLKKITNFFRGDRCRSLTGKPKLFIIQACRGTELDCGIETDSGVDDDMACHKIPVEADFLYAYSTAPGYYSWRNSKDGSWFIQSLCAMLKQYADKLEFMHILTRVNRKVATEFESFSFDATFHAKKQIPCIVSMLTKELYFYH", "assay_type": "functional"}, "[5]": {"biological_target": "T4, Sentrin-specific protease 7 (Homo sapiens, UniProt Q9BQF6)", "T4 sequence (Q9BQF6 whole entry)": "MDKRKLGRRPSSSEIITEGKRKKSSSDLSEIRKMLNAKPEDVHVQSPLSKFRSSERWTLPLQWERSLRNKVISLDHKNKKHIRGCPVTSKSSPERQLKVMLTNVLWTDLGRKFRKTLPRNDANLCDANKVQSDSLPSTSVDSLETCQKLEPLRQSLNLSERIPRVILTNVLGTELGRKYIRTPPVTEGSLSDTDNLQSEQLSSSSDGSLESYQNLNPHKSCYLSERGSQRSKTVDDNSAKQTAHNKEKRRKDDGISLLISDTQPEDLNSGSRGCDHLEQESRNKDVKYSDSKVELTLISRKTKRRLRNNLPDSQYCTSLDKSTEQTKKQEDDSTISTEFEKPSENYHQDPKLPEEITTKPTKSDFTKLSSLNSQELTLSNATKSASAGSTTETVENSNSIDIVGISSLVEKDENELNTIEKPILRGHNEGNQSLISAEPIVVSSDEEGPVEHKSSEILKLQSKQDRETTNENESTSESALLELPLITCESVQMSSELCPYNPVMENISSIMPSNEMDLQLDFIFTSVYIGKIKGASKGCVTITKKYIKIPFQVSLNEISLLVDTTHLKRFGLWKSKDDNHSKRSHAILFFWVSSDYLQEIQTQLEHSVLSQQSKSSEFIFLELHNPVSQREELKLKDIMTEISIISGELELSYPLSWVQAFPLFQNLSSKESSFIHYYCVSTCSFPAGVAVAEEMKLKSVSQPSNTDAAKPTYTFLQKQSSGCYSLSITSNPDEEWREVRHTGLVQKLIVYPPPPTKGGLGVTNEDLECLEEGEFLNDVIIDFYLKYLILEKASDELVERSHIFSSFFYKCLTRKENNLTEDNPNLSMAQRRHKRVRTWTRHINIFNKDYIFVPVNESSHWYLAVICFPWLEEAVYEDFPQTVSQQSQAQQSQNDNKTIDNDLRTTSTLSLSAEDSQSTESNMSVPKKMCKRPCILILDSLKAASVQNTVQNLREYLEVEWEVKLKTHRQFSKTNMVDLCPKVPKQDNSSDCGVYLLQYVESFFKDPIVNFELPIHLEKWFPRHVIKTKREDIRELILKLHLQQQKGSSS", "assay_type": "functional"}, "[6]": {"biological_target": "T5, Sentrin-specific protease 6 (Homo sapiens, UniProt Q9GZR1)", "T5 sequence (Q9GZR1 whole entry)": "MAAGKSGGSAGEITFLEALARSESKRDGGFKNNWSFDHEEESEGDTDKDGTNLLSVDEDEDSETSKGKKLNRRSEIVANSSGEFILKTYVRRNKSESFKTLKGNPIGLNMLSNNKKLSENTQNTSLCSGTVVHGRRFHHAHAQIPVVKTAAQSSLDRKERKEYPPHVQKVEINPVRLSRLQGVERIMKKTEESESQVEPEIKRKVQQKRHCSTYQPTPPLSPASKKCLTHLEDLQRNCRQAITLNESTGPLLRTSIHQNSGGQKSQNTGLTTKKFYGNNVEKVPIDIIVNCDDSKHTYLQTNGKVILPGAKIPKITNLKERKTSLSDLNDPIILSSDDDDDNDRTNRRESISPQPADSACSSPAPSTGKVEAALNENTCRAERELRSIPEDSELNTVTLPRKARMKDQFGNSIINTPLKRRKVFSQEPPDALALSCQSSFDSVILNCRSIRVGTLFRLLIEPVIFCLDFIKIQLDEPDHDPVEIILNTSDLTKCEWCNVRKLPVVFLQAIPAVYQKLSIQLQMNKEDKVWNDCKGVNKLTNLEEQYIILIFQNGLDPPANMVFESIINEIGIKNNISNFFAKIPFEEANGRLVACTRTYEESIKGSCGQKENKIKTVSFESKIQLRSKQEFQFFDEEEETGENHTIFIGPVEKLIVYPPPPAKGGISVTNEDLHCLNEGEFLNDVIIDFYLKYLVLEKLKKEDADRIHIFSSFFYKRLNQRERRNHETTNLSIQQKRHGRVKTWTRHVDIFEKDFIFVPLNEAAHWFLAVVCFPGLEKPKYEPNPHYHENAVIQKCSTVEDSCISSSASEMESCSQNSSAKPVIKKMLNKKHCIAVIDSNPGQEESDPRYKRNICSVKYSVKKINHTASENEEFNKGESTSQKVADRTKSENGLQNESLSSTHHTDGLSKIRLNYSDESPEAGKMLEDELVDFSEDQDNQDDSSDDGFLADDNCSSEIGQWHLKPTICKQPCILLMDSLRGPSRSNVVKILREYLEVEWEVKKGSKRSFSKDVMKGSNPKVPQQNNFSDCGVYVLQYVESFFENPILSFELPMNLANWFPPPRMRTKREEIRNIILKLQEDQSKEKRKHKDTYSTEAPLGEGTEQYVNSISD", "assay_type": "functional"}, "[7]": {"biological_target": "T2, Runt-related transcription factor 1/Core-binding factor subunit beta", "assay": "Confirmation of compounds inhibiting the binding between the RUNX1 Runt domain and CBFb-SMMHC via a fluorescence resonance energy transfer (FRET) assay. [Related pubchem assays (depositor defined):AID1434, AID1438, AID1496, AID1550, AID1645]", "assay_type": "protein assay"}, "[8]": {"biological_target": "Nonstructural protein 1 (Influenza A virus, UniProt Q194T2)", "sequence (Q194T2 whole entry)": "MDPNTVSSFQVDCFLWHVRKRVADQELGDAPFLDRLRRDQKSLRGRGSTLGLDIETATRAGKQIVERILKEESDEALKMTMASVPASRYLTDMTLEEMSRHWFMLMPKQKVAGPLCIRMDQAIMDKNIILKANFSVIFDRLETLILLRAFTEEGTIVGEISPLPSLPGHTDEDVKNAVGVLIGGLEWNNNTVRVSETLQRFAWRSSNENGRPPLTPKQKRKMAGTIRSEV", "assay_type": "functional, Influenza A virus (A/California/07/2009(H1N1))"}, "[9]": {"tested_on": "HEK293", "assay": "inhibitors of LMP1-driven NF-kB reporter, dose response, cell-based, HEK293, luciferase, cherry-pick (AID 588343)", "assay_type": "functional", "conditions": "Homo sapiens"}, "[10]": {"biological_target": "T6, Hexokinase HKDC1 (Homo sapiens, UniProt Q2TB90)", "T6 sequence (Q2TB90 whole entry)": "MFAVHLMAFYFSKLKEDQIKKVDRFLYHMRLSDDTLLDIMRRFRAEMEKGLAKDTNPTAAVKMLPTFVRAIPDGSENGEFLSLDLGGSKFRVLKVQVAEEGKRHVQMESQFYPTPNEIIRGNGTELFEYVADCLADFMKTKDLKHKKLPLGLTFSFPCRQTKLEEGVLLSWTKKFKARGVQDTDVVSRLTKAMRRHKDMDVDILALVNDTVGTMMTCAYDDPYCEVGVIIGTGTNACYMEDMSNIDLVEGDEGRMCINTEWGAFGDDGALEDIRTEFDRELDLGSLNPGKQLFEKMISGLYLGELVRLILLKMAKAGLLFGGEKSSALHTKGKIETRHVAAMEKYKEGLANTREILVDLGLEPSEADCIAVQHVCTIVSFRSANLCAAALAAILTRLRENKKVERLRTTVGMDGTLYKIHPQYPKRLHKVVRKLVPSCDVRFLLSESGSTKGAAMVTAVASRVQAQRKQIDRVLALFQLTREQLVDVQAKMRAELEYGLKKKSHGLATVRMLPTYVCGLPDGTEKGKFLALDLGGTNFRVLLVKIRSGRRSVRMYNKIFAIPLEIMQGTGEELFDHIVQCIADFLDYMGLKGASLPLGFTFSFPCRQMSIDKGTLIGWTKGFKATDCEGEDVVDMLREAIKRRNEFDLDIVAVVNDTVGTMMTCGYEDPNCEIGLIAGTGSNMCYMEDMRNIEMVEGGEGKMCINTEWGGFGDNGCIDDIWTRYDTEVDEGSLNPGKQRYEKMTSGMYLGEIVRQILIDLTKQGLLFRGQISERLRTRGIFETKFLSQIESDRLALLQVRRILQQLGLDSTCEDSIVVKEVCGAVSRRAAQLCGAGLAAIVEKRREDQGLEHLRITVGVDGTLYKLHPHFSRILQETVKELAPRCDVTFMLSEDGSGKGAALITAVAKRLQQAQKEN", "assay": "HKDC1 hexokinase activators, dose response, biochemical, W721R variant (AID 504730)", "assay_type": "functional"}, "[11]": {"biological_target": "Hexokinase-1 (Homo sapiens, UniProt P19367)", "sequence (P19367 whole entry)": "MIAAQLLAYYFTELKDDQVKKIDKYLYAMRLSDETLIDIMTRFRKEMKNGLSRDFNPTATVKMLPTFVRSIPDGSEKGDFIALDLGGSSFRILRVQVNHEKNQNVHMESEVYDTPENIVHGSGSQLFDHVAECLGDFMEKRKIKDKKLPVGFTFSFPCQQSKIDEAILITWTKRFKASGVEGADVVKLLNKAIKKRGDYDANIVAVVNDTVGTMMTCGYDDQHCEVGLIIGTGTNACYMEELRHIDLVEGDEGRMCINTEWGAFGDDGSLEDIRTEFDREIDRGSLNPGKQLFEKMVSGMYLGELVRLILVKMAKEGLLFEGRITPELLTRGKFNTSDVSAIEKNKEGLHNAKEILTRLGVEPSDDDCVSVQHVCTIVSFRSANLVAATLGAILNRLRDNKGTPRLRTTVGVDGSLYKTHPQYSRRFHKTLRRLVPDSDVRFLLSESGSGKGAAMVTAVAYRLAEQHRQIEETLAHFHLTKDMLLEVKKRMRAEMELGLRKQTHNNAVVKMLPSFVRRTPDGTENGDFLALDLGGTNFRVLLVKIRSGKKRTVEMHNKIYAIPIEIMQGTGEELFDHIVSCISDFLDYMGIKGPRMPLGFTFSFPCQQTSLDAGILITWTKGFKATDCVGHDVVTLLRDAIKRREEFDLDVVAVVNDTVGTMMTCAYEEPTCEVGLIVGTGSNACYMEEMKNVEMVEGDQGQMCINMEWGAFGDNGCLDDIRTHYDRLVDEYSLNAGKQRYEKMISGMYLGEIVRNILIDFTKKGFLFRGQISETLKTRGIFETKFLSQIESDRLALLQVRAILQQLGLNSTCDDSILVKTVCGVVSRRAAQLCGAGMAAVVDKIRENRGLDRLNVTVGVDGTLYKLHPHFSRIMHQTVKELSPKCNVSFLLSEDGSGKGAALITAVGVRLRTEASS", "assay": "hexokinase 1 activators, dose response, selectivity assay for HKDC1 activator project, biochemical (AID 504762)", "assay_type": "functional"}}, "note": "Active and inactive are the calls of the source.", "data": [{"smiles": "O=S(=O)(Nc1ccc(-c2nc3cccnc3s2)cc1)c1ccc(Cl)s1", "values": [{"measurement": "IC50", "setting": "[1]", "value": "29.1 µM (active)"}, {"measurement": "IC50", "setting": "[2]", "value": "24 µM (active)"}, {"measurement": "IC50", "setting": "[3]", "value": "5.46 µM (active)"}, {"measurement": "IC50", "setting": "[4]", "value": "31.2 µM (active)"}, {"measurement": "IC50", "setting": "[5]", "value": "18.8 µM (active)"}, {"measurement": "IC50", "setting": "[6]", "value": "25 µM (active)"}, {"measurement": "IC50", "setting": "[7]", "value": "1.87 µM (active)"}]}, {"smiles": "CC(=NNC(=S)N1CC2CCC(CC2)C1)c1nccs1", "values": [{"measurement": "IC50", "setting": "[8]", "value": "13 µM (active)"}, {"measurement": "AC50", "setting": "[9]", "value": "0.539 µM (active)"}, {"measurement": "EC50", "setting": "[10]", "value": "1.83 µM (active)"}, {"measurement": "EC50", "setting": "[11]", "value": "> 80 µM (inactive)"}]}]}
